The text below walks through data of patent publication US9040565B2, “1H-benzimidazole-5-carboxamides as anti-inflammatory agents” (Orexo AB, priority 2008, dated 2015).

In the assay the target is T1, recombinant human mPGES-1 (Homo sapiens, UniProt O14684).
T1 construct: made in house; host or cells: Rosetta E. coli (microsomal/membrane fraction)
T1 sequence (O14684 1-152): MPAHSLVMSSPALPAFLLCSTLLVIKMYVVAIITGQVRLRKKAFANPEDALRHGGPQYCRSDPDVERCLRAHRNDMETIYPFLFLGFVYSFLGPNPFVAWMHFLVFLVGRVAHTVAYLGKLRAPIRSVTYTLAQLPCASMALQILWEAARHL
The assay is described as follows: mPGES-1 inhibition, HTRF detection of PGE2 (Biological Test). Type of assay: biochemical. Here is the method: Microsomes from Rosetta E. coli bacteria expressing recombinant human mPGES-1 is dissolved in 0.1 M KPi pH 7.4 buffer containing 2.5 mM GSH. 50 μl of the enzyme is subsequently dispensed in a 384-well plate. 0.5 μl of the inhibitor dissolved in DMSO at is thereafter added to each well and incubated for 25 minutes at room temperature.
Subsequently, 2 μl of PGH2 dissolved in an appropriate solvent is added to each well and after one minute the acidified stop solution containing FeCl2 is added. 4 μl of the total volume is transferred to a separate plate and diluted 750-fold in two separate steps before HTRF detection of PGE2.
The HTRf detection is performed by the use of a commercially available kit from CisBio essentially according to the manufacturer's protocol. Briefly, 10 μl of the diluted sample is transferred to a white 384-well plate. 5 μl of d2 and 5 μl Eu3+-Cryptate labeled anti-PGE2 is added to each well containing samples by the use of a Multidrop. The plate is covered with a plastic self-adhesive film, centrifuged at 1200 rpm for 1 minute and subsequently stored at +4° C. over night.
After over night incubation the fluorescence is measured by the use of an appropriate microplate reader. The fluorescence of europium cryptate, and d2 are measured using the following excitation and emission wavelength, europium cryptate: λmax^ex=307 nm, λmax^em=620 nm and d2: λmax^ex=620 nm, λmax^em=665 nm), respectively. The extent of the specific FRET is measured as a ratio of the emission intensity at 665 nm vs. that at 620 nm. A standard curve using synthetic PGE2 is used to quantify the amount of PGE2 in unknown samples.

In general, inhibition refers to the change of the read-out against control, counted positive when it falls. Turning to `O=C(Nc1ccc(Br)cc1)c1ccc2nc(Nc3c(Cl)cncc3Cl)[nH]c2c1` [Example 388, N-(4-Bromophenyl)-2-(3,5-dichloropyridin-4-ylamino)-1H-benzimidazole-5-carboxamide], the inhibition at 10 µM was 100%.

`CC1(C)CCC(NC(=O)c2ccc3nc(Nc4c(Cl)cncc4Cl)[nH]c3c2)CC1` [Example 409, 2-(3,5-Dichloropyridin-4-ylamino)-N-(4,4-dimethylcyclohexyl)-1H-benzimidazole-6-carboxamide]: the inhibition at 10 µM is 100%.

Turning to `Cn1c(Nc2c(Cl)cncc2Cl)nc2cc(C(=O)Nc3ccc(Br)cc3)ccc21` [Example 410, N-(4-Bromophenyl)-2-(3,5-dichloropyridin-4-ylamino)-1-methyl-1H-benzimidazole-5-carboxamide], the inhibition at 10 µM was found to be 100%.

As to `O=C(Nc1cccc(Cl)c1)c1ccc2nc(Nc3c(Cl)cncc3Cl)[nH]c2c1` [Example 434, N-(3-Chlorophenyl)-2-(3,5-dichloropyridin-4-ylamino)-1H-benzimidazole-5-carboxamide], the inhibition at 10 µM was found to be 98%.

Consider `Cn1c(Nc2c(Cl)cncc2Cl)nc2cc(C(=O)NC3CCC(C)(C)CC3)ccc21` [Example 435, 2-(3,5-dichloropyridin-4-ylamino)-N-(4,4-dimethylcyclohexyl)-1-methyl-1H-benzimidazole-5-carboxamide], for which the inhibition at 10 µM is 100%.

In the case of `CC1(C)CCC(NC(=O)c2ccc3[nH]c(Nc4c(Cl)cncc4Cl)nc3c2)CC1` [Example 446, 2-(3,5-Dichloropyridin-4-ylamino)-N-(4,4-dimethylcyclohexyl)-1H-benzimidazole-5-carboxamide], the inhibition at 10 µM is 100%.

For `Cn1c(Nc2c(Cl)cncc2Cl)nc2cc(C(=O)NCc3ccccc3C(F)(F)F)ccc21` [Example 467, 2-(3,5-Dichloropyridin-4-ylamino)-1-methyl-N-(2-trifluoromethyl-benzyl)-1H-benzimidazole-5-carboxamide], the inhibition at 10 µM is 96%.

`O=C(NCc1ccccc1C(F)(F)F)c1ccc2[nH]c(Nc3c(Cl)cncc3Cl)nc2c1` [Example 493, 2-(3,5-Dichloropyridin-4-ylamino)-N-(2-trifluoromethyl-benzyl)-1H-benzimidazole-5-carboxamide]: the inhibition at 10 µM amounted to 100%.

As to `Cn1c(Nc2ccncc2Cl)nc2cc(C(=O)Nc3ccc(Br)cc3)ccc21` [Example 520, N-(4-Bromophenyl)-2-(3-chloropyridin-4-ylamino)-1-methyl-1H-benzimidazole-5-carboxamide], the inhibition at 10 µM is 97%.

`Cc1ccnc(Cl)c1Nc1nc2ccc(C(=O)Nc3cccc(Cl)c3)cc2[nH]1` [Example 521, 2-(2-Chloro-4-methylpyridin-3-ylamino)-N-(3-chlorophenyl)-1H-benzimidazole-5-carboxamide]: the inhibition at 10 µM was 95%.

For `Cc1ccnc(Cl)c1Nc1nc2ccc(C(=O)NC3CCC(C)(C)CC3)cc2[nH]1` [Example 531, 2-(2-Chloro-4-methylpyridin-3-ylamino)-N-(4,4-dimethylcyclohexyl)-1H-benzimidazole-5-carboxamide], the inhibition at 10 µM was found to be 93%.

For `Cn1c(Nc2c(Cl)cncc2Cl)nc2cc(C(=O)NC3CCCCC3)ccc21` [Example 547, N-Cyclohexyl-2-(3,5-dichloropyridin-4-ylamino)-1-methyl-1H-benzimidazole-5-carboxamide], the inhibition at 10 µM came to 96%.

Take `Cn1c(Nc2c(Cl)cncc2Cl)nc2cc(C(=O)NCc3ncccc3C(F)(F)F)ccc21` [Example 553, 2-(3,5-Dichloropyridin-4-ylamino)-1-methyl-N-((3-trifluoromethyl-pyridin-2-yl)methyl)-1H-benzimidazole-5-carboxamide]: the inhibition at 10 µM worked out at 53%.

For `O=C(NCc1ncccc1C(F)(F)F)c1ccc2[nH]c(Nc3c(Cl)cncc3Cl)nc2c1` [Example 565, 2-(3,5-Dichloropyridin-4-ylamino)-N-((3-trifluoromethyl-pyridin-2-yl)methyl)-1H-benzimidazole-5-carboxamide], the inhibition at 10 µM came out at 84%.

Take `O=C(Nc1ccc(Br)cc1)c1ccc2[nH]c(Nc3ccncc3Cl)nc2c1` [Example 566, N-(4-Bromophenyl)-2-(3-chloropyridin-4-ylamino)-1H-benzimidazole-5-carboxamide]: the inhibition at 10 µM is 77%.

For the molecule `Cc1cnccc1Nc1nc2cc(C(=O)Nc3ccc(Br)cc3)ccc2n1C` [Example 567, N-(4-Bromophenyl)-1-methyl-2-(3-methylpyridin-4-ylamino)-1H-benzimidazole-5-carboxamide], the inhibition at 10 µM was 80%.

Take `CCOc1cc2[nH]c(Nc3c(Cl)cncc3Cl)nc2cc1C(=O)Nc1cc(C(F)F)c(F)cn1` [Example 655, 2-(3,5-Dichloro-pyridin-4-yl-amino)-6-ethoxy-N-(5-fluoro-4-difluoromethyl-pyridin-2-yl)-1H-benzimidazole-5-carboxamide]: the inhibition at 10 µM is 100%.

On to `CN(C)c1cc(C(F)(F)F)cc(NC(=O)c2cc3nc(Nc4c(Cl)cncc4Cl)[nH]c3cc2OCC(F)(F)F)n1` [Example 656, 2-(3,5-Dichloro-pyridin-4-yl-amino)-6-(2,2,2-trifluoroethoxy)-N-(6-dimethylamino-4-trifluoromethyl-pyridin-2-yl)-1H-benzimidazole-5-carboxamide], for which the inhibition at 10 µM was found to be 96%.

As for `O=C(Nc1ccc(Br)cc1)c1cc2nc(Nc3c(Cl)cncc3Cl)[nH]c2cc1OC1CCOC1` (stereo not shown) [Example 659, 2-(3,5-Dichloro-pyridin-4-yl-amino)-6-(tetrahydrofuran-3-yl-oxy)-N-(4-bromo-phenyl)-1H-benzimidazole-5-carboxamide], the inhibition at 10 µM came to 98%.

On to `CCCOc1cc2c(cc1C(=O)Nc1ccc(Br)cc1)nc(Nc1c(Cl)cncc1Cl)n2C` [Example 660, 2-(3,5-Dichloropyridin-4-ylamino)-N-(4-bromophenyl)-6-propoxy-1-methyl-1H-benzimidazole-5-carboxamide], for which the inhibition at 10 µM was 99%.

Take `Cn1c(Nc2c(Cl)cncc2Cl)nc2cc(C(=O)Nc3ccc(Br)cc3)c(OC3CCOC3)cc21` (stereo not shown) [Example 661, 2-(3,5-Dichloropyridin-4-ylamino)-N-(4-bromophenyl)-6-(tetrahydrofuran-3-yl-oxy)-1-methyl-1H-benzimidazole-5-carboxamide]: the inhibition at 10 µM is 100%.

As for `CN1CCC(Oc2cc3c(cc2C(=O)Nc2ccc(Br)cc2)nc(Nc2c(Cl)cncc2Cl)n3C)C1` (stereo not shown) [Example 662, 2-(3,5-Dichloropyridin-4-ylamino)-N-(4-bromophenyl)-6-(N-methyl-pyrrolidin-3-yl-oxy)-1-methyl-1H-benzimidazole-5-carboxamide], the inhibition at 10 µM is 99%.

Regarding `Cn1c(Nc2c(Cl)cncc2Cl)nc2cc(C(=O)Nc3ccc(Br)cc3)c(OCCN3CCCC3)cc21` [Example 663, 2-(3,5-Dichloropyridin-4-ylamino)-N-(4-bromophenyl)-6-(2-(pyrrolidin-1-yl)-ethoxy)-1-methyl-1H-benzimidazole-5-carboxamide], the inhibition at 10 µM was 96%.

Consider `Cn1c(Nc2c(Cl)cncc2Cl)nc2cc(C(=O)Nc3ccc(Br)cc3)c(OCCN3CCCC3=O)cc21` [Example 664, 2-(3,5-Dichloropyridin-4-ylamino)-N-(4-bromophenyl)-6-(2-(pyrrolidin-2-on-1-yl)-ethoxy)-1-methyl-1H-benzimidazole-5-carboxamide], for which the inhibition at 10 µM came to 99%.

Take `Cn1c(Nc2c(Cl)cncc2Cl)nc2cc(C(=O)NCc3ccccc3C(F)(F)F)c(OC3CCOC3)cc21` (stereo not shown) [Example 665, 2-(3,5-Dichloropyridin-4-ylamino)-N-((2-trifluoromethyl-phen-1-yl)-methyl)-6-(tetrahydrofuran-3-yl-oxy)-1-methyl-1H-benzimidazole-5-carboxamide]: the inhibition at 10 µM is 99%.

Consider `COCCOc1cc2c(cc1C(=O)Nc1ccc(Br)cc1)nc(Nc1c(Cl)cncc1Cl)n2C` [Example 666, 2-(3,5-Dichloropyridin-4-ylamino)-N-(4-bromophenyl)-6-(2-methoxy-ethoxy)-1-methyl-1H-benzimidazole-5-carboxamide], for which the inhibition at 10 µM was 100%.

Regarding `CCOc1cc2[nH]c(Nc3c(Cl)cncc3Cl)nc2cc1C(=O)NCc1ncccc1C(F)(F)F` [Example 667, 2-(3,5-Dichloropyridin-4-ylamino)-N-((3-trifluoromethyl-pyridin-2-yl)-methyl)-6-ethoxy-1H-benzimidazole-5-carboxamide], the inhibition at 10 µM amounted to 99%.

For the molecule `CCOc1cc2c(cc1C(=O)NCc1ncccc1C(F)(F)F)nc(Nc1c(Cl)cncc1Cl)n2C` [Example 668, 2-(3,5-Dichloropyridin-4-ylamino)-N-((3-trifluoromethyl-pyridin-2-yl)-methyl)-6-ethoxy-1-methyl-1H-benzimidazole-5-carboxamide], the inhibition at 10 µM amounted to 100%.
